Data taken from article PMC11684667 (Molecular cell, 2023).
Blank lines part the entries; values can stand above or below the molecule they belong to. Non-standard residues stand in square brackets, D forms with d. No end group written: not given here. pS = N[C@@H](COP(=O)(O)O)C(=O)O

Legend:
CK1δ ΔC = test: NMR kinase assay monitoring priming phosphorylation at S662; type: biochemical, human; conditions: 3-hr real-time NMR kinase assay, 0.2 mM 15N-FASP, 2.5 mM ATP, 1 µM CK1δ ΔC, 25°C, SOFAST HMQC
[1] = molecular target: T1, Human CK1δ catalytic domain (residues 1–294) (human, UniProt P48730 1-294); test: crystal structure
T1 sequence: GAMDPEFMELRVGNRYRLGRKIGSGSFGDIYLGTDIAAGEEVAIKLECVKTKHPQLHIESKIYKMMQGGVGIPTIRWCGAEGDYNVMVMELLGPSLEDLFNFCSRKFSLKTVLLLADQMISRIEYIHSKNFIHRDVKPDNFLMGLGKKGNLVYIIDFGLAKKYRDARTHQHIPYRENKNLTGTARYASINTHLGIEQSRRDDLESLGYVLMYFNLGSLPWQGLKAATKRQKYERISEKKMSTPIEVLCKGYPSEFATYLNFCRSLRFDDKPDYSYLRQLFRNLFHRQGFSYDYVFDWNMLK

fraction of primed FASP (pS662), completion of priming (CK1δ ΔC): approximately 50%
Molecule: WT FASP: wild-type recombinant FASP peptide (residues 645–687) from human PER2 (GAMDPEFWRKKKTGVGTHLTSLALPGKAESVASLTSQCSYSSTIVHVGDKKPQPE; left off: His-NusA, N-terminal, cleaved)

binding result [1]: binds
B1: human PER2 4pFASP peptide (peptide)
peptide: GKAE[pS]VA[pS]LT[pS]QC[pS]YA
